Experiments:
U87-MG cells = experiment: Confocal imaging of intracellular thiols, U87-MG; type: cell-based, human; conditions: BSO increased from 25 to 100 μM
Procedure: To explore the capability of using TPE-SS-D5-cRGD as a specific bioprobe for monitoring intracellular thiol levels in cancer cells, the probe is incubated with U87-MG human glioblastoma and MCF-7 breast cancer cell lines. U87-MG cells with overexpressed integrin αvβ3 on cellular membrane was chosen as integrin-positive cancer cell, while breast cancer cell MCF-7 with a low level of integrin αvβ3 expression was used as the negative control. […] It should be noted that the probe could also be used for live cell imaging. To provide further evidence for thiol-induced disulfide bond cleavage as the trigger of fluorescence turn-on, the U87-MG cells were also pretreated with buthionine sulfoximine (BSO) before incubation with TPE-SS-D5-cRGD. BSO is an inhibitor of g-glutamylcysteine synthetase which can inhibit the cells from synthesizing GSH. The fluorescence of TPE-SS-D5-cRGD treated U87-MG cells decreases as the concentration of BSO increases from 25 to 100 μM.

[1] = In vitro cytotoxicity studies; type: cell-based

Structure (SMILES) | fluorescence of TPE-SS-D5-cRGD treated cells after BSO pretreatment (U87-MG cells) | in vitro cytotoxicity [1]
CCCCS(=N)(=O)CCC(N)C(=O)O (centres unmarked) [BSO, buthionine sulfoximine] | decreases | 
N=C(N)NCCC[C@@H]1NC(=O)[C@H](CCCCNC(=O)[C@H](CC(=O)O)NC(=O)[C@H](CC(=O)O)NC(=O)[C@H](CC(=O)O)NC(=O)[C@H](CC(=O)O)NC(=O)[C@H](CC(=O)O)NC(=O)CCSSCCC(=O)NCc2ccc(C(=C(c3ccccc3)c3ccccc3)c3ccccc3)cc2)NC(=O)[C@@H](Cc2ccccc2)NC(=O)[C@H](CC(=O)O)NC(=O)CNC1=O [TPE-SS-D5-cRGD] |  | biocompatible

Source: patent US20160356723A1, “Light-Up Probes Based On Fluorogens With Aggregation Induced Emission Characteristics For Cellular Imaging And Drug Screening” (NATIONAL UNIVERSITY OF SINGAPORE, priority 2014, published 2016)
